Experimental data reported in paper PMC7456776, “The utility of a differentiated preclinical liver model, HepaRG cells, in investigating delayed toxicity via inhibition of mitochondrial-replication induced by fialuridine” (Toxicology and Applied Pharmacology, 2020).
Entries after “also recorded” stand apart in the source; their conditions may differ. Where two headings read alike, the source gives them in different places.

How the values were obtained:
HepaRG cells [1] = assay: Metabolic modification assay: dual ATP and cell viability (total cellular protein) assessment, extended dosing; type: cell-based, human
Experimental: In accordance with Biopredic international guidelines, undifferentiated HepaRG cells were seeded into clear flat bottomed 96 well (9000 cells/well) or Seahorse plates (4000 cells/well). They were grown for two weeks in growth media before their differentiation over 2 further weeks in differentiation media. Cells were kept at 37 °C, 5% CO2 in a humidified environment and received fresh, appropriate media twice a week. The fully differentiated cells were then used over the following four-week period, whilst being maintained in differentiation media. All experiments were performed using cells at passage number < 20.
(§1) Differentiated HepaRG cells were treated with 0–300 μM final concentrations of FIAU (1–4 weeks). FIAU was replaced in fresh differentiation media every 3–4 days. The final concentration of DMSO was at a constant 0.5% v/v in both HepaRG and HepG2 treatments. In all experiments dosing was performed in glucose supplemented media.
This was performed as previously described ([Kamalian et al., 2018]). […] IC50 values were calculated using Prism (GraphPad, California, USA) (Table 1) and criteria applied to identify a compound as a direct mitochondrial toxin.
Each experiment was performed on three or more independent occasions (n ≥ 3). IC50 values were calculated using GraphPad Prism 7 software, and were expressed as a mean ± standard deviation (SD). For all other statistical analysis comparing the values obtained from treated cells to vehicle control an ANOVA was performed, with a Dunnett or Tukey post hoc analysis where appropriate. P values lower than 0.05 were considered as statistically significant for both tests.

HepaRG cells [2] = assay: Seahorse XFe mitochondrial stress test (oxygen consumption, extracellular acidification); type: cell-based, human
Experimental: (§2) Briefly, following the dosing period, media was switched to unbuffered XF basal medium (175 μl, pH 7.4) supplemented with glucose (25 mM), L-glutamine (2 mM) and sodium pyruvate (1 mM) before incubating in a CO2 free incubator (37 °C). Oxygen consumption was measured by Seahorse XFe96 according to the previously described protocol ([Kamalian et al., 2018]).

HepaRG cells [3] = conditions: human, 12 μM
Experimental: Samples were prepared for transmission electron microscopy (TEM) in 3 cm dishes as follows. Cells were fixed in 2.5% (w/v) glutaraldehyde in 0.1 M phosphate buffer (pH 7.4) before staining with reduced osmium (2% (w/v) OsO4, 1.5% (w/v) potassium ferrocyanide in ddH2O), 1% (w/v) thiocarbohydrazide, 2% OsO4 (w/v in ddH20), then 1% (w/v) aqueous uranyl acetate overnight at 4 °C. The next day samples were finally stained with Walton's lead aspartate (0.02 M lead nitrate, 0.03 M aspartic acid, pH 5.5). To prevent precipitation artefacts the cells were washed copiously with ddH2O between each staining step. […] Dehydration was in a graded ethanol series before filtration and embedding in medium premix resin (TAAB, Reading, UK).
For TEM, 70–74 nm serial sections were cut using a UC6 ultra microtome (Leica Microsystems, Wetzlar, Germany) and collected on Formvar (0.25% (w/v) in chloroform, TAAB, Reading, UK) coated Gilder 200 mesh copper grids (GG017/C, TAAB, Reading, UK). […]
Resultant TEM images were analysed using Image J software to measure intracellular mitochondrial features (NIH, USA). […] In brief, total mitochondria number per cell was counted as well as mitochondria area (μM^2) alongside cytosol area (calculated as total cell area minus nuclear area and vacuole area μM^2).

HepaRG cells [4] = assay: Cellular steatosis by Oil Red O staining; type: cell-based, human; conditions: 12 μM, 4 weeks
Experimental: Following drug treatment cells were washed twice in PBS and fixed in 4% paraformaldehyde (1 h, RT). Cells were then washed twice in ddH2O and incubated in isopropanol (IPA, 60% v/v, 5 min). Oil red O working solution (3:2 in ddH2O from the stock solution of 0.33% w/v in 100% IPA) was applied to the cells for 20 min. Background staining was removed by several washes with ddH2O and a 5 min wash in 60% v/v IPA. The intracellular lipid was extracted by 100% IPA after the wells were dried. The lipid content was quantified by reading the optical density at 540 nm on a Varioskan Flash (Thermo Fisher Scientific, USA).

patients = tested on: patients; parameters: method as in McKenzie et al., 1995; conditions: ref McKenzie et al., 1995, cited from earlier work
[5] = tested on: mitochondrial respiratory complexes I, II, IV in permeabilised HepaRG cells; assay: In-situ mito substrate assay of individual respiratory complex activity in permeabilised cells (Seahorse); type: cell-based, human; conditions: 12 μM
Excerpt: The assessment of individual mitochondrial complex activity was preformed using the in-situ mito substrate assay in permeabilised cells using Seahorse Technology as previously described ([Ball et al., 2016]).

HepG2 cells [6] = assay: Metabolic modification assay: ATP and total cellular protein, 72 h; type: cell-based, human; conditions: for Total cellular protein, % of vehicle control: HepG2, 300 μM, 3 days
Experimental: HepG2 cells were cultured and maintained in DMEM media as described previously ([Kamalian et al., 2015]).
as §1
This was performed as previously described ([Kamalian et al., 2018]). Briefly, following the dosing period, media was switched to either “glucose” or “galactose” media for 2 h prior to measuring cellular ATP content and lactate dehydrogenase (LDH) release as a marker of cell viability, both normalised to protein content. IC50 values were calculated using Prism (GraphPad, California, USA) (Table 1) and criteria applied to identify a compound as a direct mitochondrial toxin.

PHH spheroids = tested on: PHH spheroids; parameters: method as in Bell et al., 2016; conditions: 3D PHH spheroids, 7 days; ref Bell et al., 2016; cited from earlier work
HepG2 cells [7] = assay: Mitochondrial DNA content by real-time PCR; type: cell-based, human; conditions: HepG2, 1.3–100 μM, up to 72 h
Experimental: (§3) DNA was extracted via QIAamp DNA Mini Kit (Qiagen, Crawley, UK). Relative levels of mtDNA copy number were determined by real-time pre-designed PCR Taqman detection kits designed to target the mitochondrial MT-ND1 gene and the nuclear RNase P gene, using TAQMAN GT Master Mix. PCR reactions were performed according to standard conditions for TaqMan: 95 °C for 10 min; 40 cycles at (95 °C 15 s, 60 °C 1 min). PCR assays were performed in duplicate for each DNA sample. Analysis was undertaken with mitochondrial ND-1 normalised to genomic RNase P and treated sample to the appropriate vehicle.
Figure Supp 3: Mitochondrial DNA content in HepG2 cells exposed to FIAU (48 and 72 h). MtDNA content was measured by real-time PCR. HepG2 cells were exposed to FIAU (10 and 100 µM) at 48 h (black bar) and 72 h (grey bar). All results are presented as % of vehicle control. n=3.

HepG2 cells [8] = tested on: HepG2 cells; parameters: method as in Colacino et al., 1994; conditions: 6 days of treatment, ref Colacino et al., 1994; cited from earlier work
HepaRG cells [9] = assay: Mitochondrial DNA content by real-time PCR (MT-ND1 normalised to RNase P); type: cell-based, human
Experimental: as §3

HepG2 cells [10] = tested on: HepG2 cells; parameters: method as in Colacino et al., 1994; conditions: 9 days, 30 μM, ref Colacino et al., 1994; cited from earlier work
HepaRG cells [11] = assay: Cellular L-lactate release; type: cell-based, human; conditions: 12 μM, four-week exposure
Experimental: Following incubation with drug the media from cells was transferred to a fresh 96-well plate and L-lactate levels were measured using an L-lactate assay kit as per the manufacturer's instructions.

[12] = parameters: method as in Bowsher et al., 1994; conditions: healthy volunteers, 5 mg single dose; ref Bowsher et al., 1994; cited from earlier work
HepG2 cells [13] = assay: Seahorse XFe mitochondrial stress test; type: cell-based, human; conditions: HepG2, 1.3–100 μM, up to 72 h
Experimental: as §2
Figure Supp 4: The effect of FIAU on mitochondrial respiratory activity of HepG2 cells. The bioenergetic parameters of HepG2 cells following exposure to FIAU (12 µM) were calculated using Seahorse respirometry at 48 h (black bar) and 72 h (grey bar). All results are presented as % of vehicle control. Key: dashed line marks vehicle control at 100 %. n=3.

## O=c1[nH]c(=O)n([C@@H]2O[C@H](CO)[C@@H](O)[C@H]2F)cc1I [FIAM]
HepaRG cells [1]; HepaRG cells, up to 4 weeks
  Cytotoxic effects: no cytotoxic effects
HepaRG cells [1]; HepaRG, 4-week incubation period
  Cellular ATP content or cell viability compared to vehicle control: no significant differences; also recorded: did not induce any decrease
HepaRG cells [2]; 2 weeks, 12 μM and up to 100 μM
  Mitochondrial respiration: did not reduce mitochondrial respiration

## O=c1[nH]c(=O)n([C@@H]2O[C@H](CO)[C@@H](O)[C@@H]2F)cc1I [FIAU, fialuridine]
HepaRG cells [3]
  Individual mean mitochondrial area: 0.19 ± 0.01 μm^2
  Number of mitochondria: 0.80 ± 0.20 mitochondria/μm^2 of cytosol
HepaRG cells [4]
  Accumulation of intracellular lipids (oil red O): no accumulation of intracellular lipids
patients; extended trial period
  Adverse effects in clinical trial: five deaths from acute liver failure
patients; week of treatment
  Time at which toxicity became apparent: > 13 week
[5]; 2 weeks
  Complex I activity, % of vehicle control: 26.9 ± 6.9%
  Complex II activity, % of vehicle control: 35.5 ± 17.7%
  Complex IV activity, % of vehicle control: 36.0 ± 15.9%
[5]; week 1
  Complex I activity, % of vehicle control: 67.4 ± 13.5%
  Complex II activity, % of vehicle control: 70.3 ± 9.8%
HepaRG cells [1]; HepaRG, extended dosing, 2 weeks
  Concentration at which toxic effects were observed: around 10 μM
HepaRG cells [1]; HepaRG, wk 3 exposure, galactose media, read-out: IC50-ATP ± S.D., Galactose
  IC50: 5.7 ± 2.8 µM
HepaRG cells [1]; Homo sapiens, HepaRG, wk 1, galactose media, total cellular protein, read-out: IC50-viability ± S.D., Galactose
  IC50: 101 ± 27 µM
HepaRG cells [1]; Homo sapiens, HepaRG, wk 1, glucose media, total cellular protein, read-out: IC50-viability ± S.D., Glucose
  IC50: 118 ± 42 µM
HepaRG cells [1]; Homo sapiens, HepaRG, wk 1 exposure, galactose media, read-out: IC50-ATP ± S.D., Galactose
  IC50: 103 ± 13.8 µM
HepaRG cells [1]; Homo sapiens, HepaRG, wk 1 exposure, glucose media, read-out: IC50-ATP ± S.D., Glucose
  IC50: 112 ± 32.8 µM
HepaRG cells [1]; Homo sapiens, HepaRG, wk 2, galactose media, total cellular protein, read-out: IC50-viability ± S.D., Galactose
  IC50: 7.3 ± 3.8 µM
HepaRG cells [1]; Homo sapiens, HepaRG, wk 2, glucose media, total cellular protein, read-out: IC50-viability ± S.D., Glucose
  IC50: 26.1 ± 9.3 µM
HepaRG cells [1]; Homo sapiens, HepaRG, wk 2 exposure, glucose media, read-out: IC50-ATP ± S.D., Glucose
  IC50: 16.8 ± 2.3 µM
HepaRG cells [1]; Homo sapiens, HepaRG, wk 3, galactose media, total cellular protein, read-out: IC50-viability ± S.D., Galactose
  IC50: 15.5 ± 3.4 µM
HepaRG cells [1]; Homo sapiens, HepaRG, wk 3, glucose media, total cellular protein, read-out: IC50-viability ± S.D., Glucose
  IC50: 14.2 ± 1.3 µM
HepaRG cells [1]; Homo sapiens, HepaRG, wk 3 exposure, galactose media, read-out: IC50-ATP ± S.D., Galactose
  IC50: 5 µM
HepaRG cells [1]; Homo sapiens, HepaRG, wk 3 exposure, glucose media, read-out: IC50-ATP ± S.D., Glucose
  IC50: 5.4 ± 2.3 µM
HepaRG cells [1]; Homo sapiens, HepaRG, wk 4, galactose media, total cellular protein, read-out: IC50-viability ± S.D., Galactose
  IC50: 3.6 ± 2.8 µM
HepaRG cells [1]; Homo sapiens, HepaRG, wk 4, glucose media, total cellular protein, read-out: IC50-viability ± S.D., Glucose
  IC50: 7.6 ± 3.3 µM
HepaRG cells [1]; Homo sapiens, HepaRG, wk 4 exposure, galactose media, read-out: IC50-ATP ± S.D., Galactose
  IC50: 7.3 ± 0.5 µM
HepaRG cells [1]; Homo sapiens, HepaRG, wk 4 exposure, glucose media, read-out: IC50-ATP ± S.D., Glucose
  IC50: 4.9 ± 1.5 µM
HepG2 cells [6]; galactose media
  Total cellular protein, % of vehicle control: 40.5 ± 13.4%
HepG2 cells [6]; glucose media
  Total cellular protein, % of vehicle control: 49.0 ± 22.7%
HepG2 cells [6]; HepG2 cells, up to 3 days
  Classification as mitotoxin: cannot be classified as a mitotoxin
PHH spheroids
  IC50: 0.7 µM
HepG2 cells [7]
  Mitochondrial copy number: no significant differences in mitochondrial copy number
HepG2 cells [8]
  TC50 (Toxicity Concentration): 35 µM
HepaRG cells [9]; 4 μM, week 1
  mtDNA content, % of vehicle control: 59.2 ± 26.5%
HepaRG cells [9]; 10 μM, 1 week
  mtDNA content, % of vehicle control: 23.5 ± 11.9%
HepaRG cells [9]; 10 μM, 4 weeks
  mtDNA content, % of vehicle control: 5.8 ± 3.0%
HepG2 cells [10]
  mtDNA replication: decreases
HepaRG cells [11]
  Extracellular L-lactate in cell supernatant: no significant increase in L-lactate
[12]
  Cmax: 600 nM
HepG2 cells [13]
  Bioenergetic parameters: no significant differences in bioenergetic parameters
HepaRG cells [2]; 12 μM, 1 week
  Parameters of oxygen consumption (BR, ALR, MR, SRC, PL, CE): no significant changes
HepaRG cells [2]; 12 μM, 2 weeks
  ATP-linked respiration (ALR), % of vehicle control: 77.4 ± 21.5%
  Basal respiration (BR), % of vehicle control: 85.7 ± 28.1%
  Maximal respiration (MR), % of vehicle control: 72.0 ± 19.1%
  Proton leak (PL) and coupling efficiency (CE): remained unchanged
  Spare respiratory capacity (SRC), % of vehicle control: 65.9 ± 15.5%
HepaRG cells [2]; over 2 weeks of treatment
  Extracellular acidification rate: no dose- or time-dependent increases
